Among the test systems are NCI-H23; UACC-257; NCI-H226; SR; RPMI-8226; OVCAR-5; BT-549; HCT-116; HT-29; SF-295; IGROV-1; OVCAR-8; NCI/ADR-RES; MDA-N; SF-539; NCI-H522; TK-10; A549; HL-60.
What all share (test): inhibition of tumour cell growth, NCI panel, 48 h

The record followed here is ChEMBL document CHEMBL1201862, “PubChem BioAssay data set” (2004).

The structures appear in SMILES notation. Where “and” joins values, the source holds several entries; their conditions need not be identical. Equal values may be shown once.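 A five-concentration, 48-hour dose response in 96-well plates underlies each endpoint, interpolated linearly between surrounding concentrations. The concentration for 50% growth inhibition is given as GI50.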 Calls of active or inactive are those of the source. Rule as the data show it: active = GI50 up to about 1.1 µM and inactive = higher.

In the case of `CN(C)CCO/N=C1/C=C2CC[C@H]3[C@@H]4CC[C@H](O)[C@@]4(C)CC[C@@H]3[C@@]2(C)CC1`, the GI50 in the assay with NCI-H23 was 11.4 µM (inactive); in the assay with UACC-257 it was 12.9 µM (inactive); in the assay with NCI-H226, 1.23 µM (inactive); in the assay with SR it was 5.55 µM (inactive); in the assay on RPMI-8226 it was 25.2 µM (inactive); in the assay with OVCAR-5 it was 12.5 µM (inactive). The GI50 was 2.61 µM (inactive) in the assay on BT-549; 10.5 µM (inactive) in the assay with HCT-116; 1.05 µM (active) with HT-29; 13.9 µM (inactive) in the assay on SF-295; 6.95 µM (inactive) with IGROV-1; 13.9 µM (inactive) in the assay with OVCAR-8. Further, the GI50 in the assay on NCI/ADR-RES is 3.18 µM (inactive); in the assay on MDA-N, 3.72 µM (inactive); with SF-539 it was 3.51 µM (inactive); with NCI-H522 it was 1.67 µM (inactive); in the assay with TK-10, 11.1 µM (inactive); in the assay on A549, 18.3 µM (inactive).

`Oc1cc2c3c(c1)CCCN3CCC2`: the GI50 in the assay on NCI-H23, in the assay with UACC-257, in the assay on NCI-H226, in the assay on SR, in the assay with RPMI-8226 and with OVCAR-5 was > 10 µM (inactive) throughout. For the same compound, the GI50 in the assay on HL-60, in the assay with BT-549, in the assay with HCT-116, with HT-29, in the assay on SF-295 and in the assay with IGROV-1 was > 10 µM (inactive) in each case. The GI50 in the assay on OVCAR-8, with NCI/ADR-RES, in the assay on MDA-N, in the assay with SF-539, in the assay on NCI-H522 and with TK-10 was > 10 µM (inactive) in each case. In the assay on A549, the GI50 was > 10 µM (inactive).

For the compound `O=C(NC1=C(Cl)C(=O)c2ccccc2C1=O)c1ccccc1`, the GI50 with NCI-H23 was 23.8 µM (inactive); in the assay with UACC-257 it was > 10 µM (inactive); in the assay with NCI-H226, 24.5 µM (inactive); in the assay with SR, 38.4 µM (inactive); with RPMI-8226, 44.4 µM (inactive); in the assay on OVCAR-5, 47.1 µM (inactive). The GI50 is 34.8 µM (inactive) in the assay with HL-60; 19.9 µM (inactive) in the assay on BT-549; 17.3 µM (inactive) with HCT-116; 29.3 µM (inactive) in the assay with HT-29; 36 µM (inactive) with SF-295; 21.8 µM (inactive) with IGROV-1. For the same compound, the GI50 with OVCAR-8 is 43.2 µM (inactive); in the assay with NCI/ADR-RES, 18.5 µM (inactive); in the assay on MDA-N it was 5.04 µM (inactive); in the assay on SF-539, 50.6 µM (inactive); in the assay with NCI-H522 it was 23.9 µM (inactive); in the assay with TK-10 it was 23 µM (inactive). Moreover, in the assay with A549, the GI50 is 52.5 µM (inactive).

As for `CCC1NC(=O)C1NC(=O)OC` (centres undefined), the GI50 in the assay on NCI-H23, in the assay on UACC-257, in the assay with NCI-H226, with SR, with RPMI-8226 and in the assay with OVCAR-5 was > 100 µM (inactive) each time. Further, the GI50 in the assay with HL-60, with BT-549, in the assay with HCT-116, in the assay on HT-29, in the assay on SF-295 and with IGROV-1 was > 100 µM (inactive) throughout. Besides, the GI50 with OVCAR-8, with NCI/ADR-RES, in the assay with MDA-N, with SF-539, with NCI-H522 and with TK-10 was > 100 µM (inactive) in each case.

In the case of `C[C@H]1CCC/C=C/[C@@H]2C[C@H](OC3OC(CO)C(O)C(O)C3O)C[C@H]2[C@H](O)/C=C/C(=O)O1` (some centres undefined), the GI50 in the assay on NCI-H23 was 53.1 µM (inactive); with UACC-257, 26.5 µM (inactive); in the assay with NCI-H226, 22.5 µM (inactive); in the assay on SR, > 100 µM (inactive); in the assay on RPMI-8226 it was 53.8 µM (inactive); in the assay on OVCAR-5, 37.3 µM (inactive). The GI50 with HL-60 is > 100 µM (inactive); with BT-549, > 100 µM (inactive); in the assay on HCT-116, 77.8 µM (inactive); in the assay on HT-29, 33.2 µM (inactive); in the assay with SF-295, 77.6 µM (inactive); with IGROV-1, > 100 µM (inactive). Besides, the GI50 in the assay on OVCAR-8 was 39.5 µM (inactive); in the assay with NCI/ADR-RES, 33.3 µM (inactive); with MDA-N, 36.3 µM (inactive); in the assay on SF-539, 32.1 µM (inactive); with NCI-H522, 44 µM (inactive); in the assay on TK-10 it was 91.2 µM (inactive). Also, the GI50 in the assay on A549 is 88.7 µM (inactive).

Turning to `CN1CCN(c2cc3[nH]c(-c4ccc(Cl)cc4)nc3cc2F)CC1`, the GI50 in the assay on NCI-H23 is 15.8 µM (inactive); in the assay with UACC-257 it was 10.8 µM (inactive); in the assay on NCI-H226, 6.81 µM (inactive); in the assay with SR, 24.1 µM (inactive); in the assay with RPMI-8226, 14.1 µM (inactive); in the assay on OVCAR-5, 15.2 µM (inactive). Moreover, the GI50 was > 10 µM (inactive) with HL-60; 15.8 µM (inactive) with BT-549; 13.8 µM (inactive) in the assay on HCT-116; 15.2 µM (inactive) in the assay with SF-295; 15.7 µM (inactive) in the assay on IGROV-1; 26.9 µM (inactive) with OVCAR-8. The GI50 is 21 µM (inactive) with NCI/ADR-RES; 12.8 µM (inactive) with MDA-N; 15.6 µM (inactive) in the assay on NCI-H522; 4.37 µM (inactive) in the assay on TK-10; 17.6 µM (inactive) in the assay with A549.

`COc1ccc(C(=O)c2cc(OC)c(OC)c(OC)c2)cc1OC`: the GI50 with NCI-H23 is 10.2 µM (inactive); in the assay with UACC-257, 27.2 µM (inactive); with SR, 3.28 µM (inactive); in the assay with RPMI-8226 it was 7.53 µM (inactive); in the assay on OVCAR-5 it was 14.6 µM (inactive); with HL-60, 2.67 µM (inactive). The GI50 in the assay on BT-549 was 5.41 µM (inactive); in the assay with HCT-116, 4.94 µM (inactive); in the assay on HT-29, 3.1 µM (inactive); in the assay on SF-295, 1.82 µM (inactive); with IGROV-1, 9.68 µM (inactive); with OVCAR-8 it was 5.38 µM (inactive). Also, the GI50 in the assay on NCI/ADR-RES was 3.84 µM (inactive); in the assay with MDA-N, 0.618 µM (active); in the assay on SF-539 it was 2.32 µM (inactive); in the assay with NCI-H522 it was 3.63 µM (inactive); with TK-10, > 100 µM (inactive); in the assay on A549, 4.44 µM (inactive).

Consider `COc1ccc(-n2c(C)nc3ccc(NC4OCC(O)C(O)C4O)cc3c2=O)cc1` (centres undefined), for which the GI50 in the assay with NCI-H23 is 56.6 µM (inactive) and 38.3 µM (inactive); with UACC-257, > 100 µM (inactive); in the assay with NCI-H226, 37.3 µM (inactive) and 37.6 µM (inactive); in the assay on SR, 31.1 µM (inactive) and 26.1 µM (inactive); in the assay with RPMI-8226, 26.5 µM (inactive) and 20 µM (inactive); in the assay with OVCAR-5, > 100 µM (inactive). Also, the GI50 is 26.4 µM (inactive) and 28.9 µM (inactive) in the assay on HL-60; 74.5 µM (inactive) with BT-549; 18.6 µM (inactive) and 19.4 µM (inactive) in the assay with HCT-116; 24 µM (inactive) and 25.6 µM (inactive) with HT-29; > 100 µM (inactive) in the assay with SF-295; > 100 µM (inactive) and 55.1 µM (inactive) in the assay on IGROV-1. Further, the GI50 with OVCAR-8 was 23.3 µM (inactive) and 28.6 µM (inactive); in the assay on NCI/ADR-RES, 53.7 µM (inactive) and 83.6 µM (inactive); with MDA-N, 61.9 µM (inactive) and 62.4 µM (inactive); in the assay on NCI-H522 it was 24.6 µM (inactive) and 22.3 µM (inactive); with TK-10, > 100 µM (inactive).

With `CN(C)Cc1cc(Cl)c(O)c(CN(C)C)c1`, the GI50 with NCI-H23, with UACC-257, in the assay with NCI-H226, in the assay on SR, with RPMI-8226 and in the assay on OVCAR-5 was > 100 µM (inactive) each time. Also, the GI50 in the assay with HL-60, in the assay on BT-549, in the assay with HCT-116, in the assay with HT-29, in the assay with SF-295 and in the assay on IGROV-1 was > 100 µM (inactive) each time. Besides, the GI50 with OVCAR-8, with NCI/ADR-RES, in the assay on MDA-N, in the assay with NCI-H522, in the assay on TK-10 and in the assay on A549 was > 100 µM (inactive) each time.

Regarding `COC(=O)C1=C(C)NC(C)=C(C(=O)OC)C1c1cccc(NO)c1`, the GI50 was 16.3 µM (inactive) with NCI-H23; 14.4 µM (inactive) in the assay with UACC-257; 15.2 µM (inactive) in the assay on NCI-H226; > 100 µM (inactive) in the assay with SR; > 100 µM (inactive) in the assay on RPMI-8226; 16.4 µM (inactive) with OVCAR-5. Moreover, the GI50 in the assay on BT-549 is 18.4 µM (inactive); in the assay on HCT-116 it was 13 µM (inactive); with HT-29, 16 µM (inactive); in the assay on SF-295, 25.9 µM (inactive); in the assay with IGROV-1, 16.7 µM (inactive); in the assay with OVCAR-8, 16.4 µM (inactive). In addition, the GI50 is 20 µM (inactive) with NCI/ADR-RES; 15.1 µM (inactive) in the assay on MDA-N; 17.4 µM (inactive) in the assay on SF-539; 7 µM (inactive) in the assay on NCI-H522; 14.2 µM (inactive) in the assay on TK-10; > 100 µM (inactive) with A549.

Regarding `CC[C@H]1C=CCC[C@@]2(C[C@@H]3CC[C@@H]4[C@H](C(=O)OCCCCCCCCCCCCCCCC(=O)N(CCCN)CCCCN)[C@]5(CCC[C@@H](C)O5)NC(=[N+]34)N2)O1`, the GI50 in the assay with NCI-H23 was 0.0724 µM (active); in the assay on UACC-257, 0.0171 µM (active); with NCI-H226 it was 0.314 µM (active); with SR it was 0.0281 µM (active); in the assay with RPMI-8226 it was 0.0344 µM (active); with OVCAR-5, 0.108 µM (active). The GI50 is 0.138 µM (active) in the assay with BT-549; 0.0275 µM (active) with HCT-116; 0.0364 µM (active) with HT-29; 0.024 µM (active) in the assay on SF-295; 0.0695 µM (active) in the assay with IGROV-1; 0.155 µM (active) with OVCAR-8. In addition, the GI50 in the assay with NCI/ADR-RES is 0.0944 µM (active); in the assay on MDA-N it was 0.0121 µM (active); in the assay on SF-539 it was 0.0679 µM (active); in the assay with NCI-H522, 0.0425 µM (active); in the assay with TK-10 it was 1.23 µM (inactive); in the assay on A549, 0.0365 µM (active).
